This note sets out measurements from patent US20100179225A1, “POI Prevention” (CYTOKINE PHARMASCIENCES, INC., priority 2008, published 2010).

For one assay, the system named is neutrophils in ME. Nature of the assay: Neutrophil infiltration into mouse ME (myeloperoxidase staining of whole mounts) after IM. The following applies: for number of neutrophils in ME: 24 hours after IM. The format is in vivo, mice. From the text: The small bowel of the animals was subjected to a standardized, surgical manipulation (IM) as described previously (Kalff J C, Schraut W H, Simmons R L et al. Surgical manipulation of the gut elicits an intestinal muscularis inflammatory response resulting in postsurgical ileus. Ann Surg 1998; 228:652-663; Wehner S, Schwarz N T, Hundsdoerfer R et al. Induction of IL-6 within the rodent intestinal muscularis after intestinal surgical stress. Surgery 2005; 137:436-446). In brief, after anesthesia a midline abdominal incision was made into the peritoneal cavity. The entire small bowel was eventuated and manipulated with standardized moderate intensity using two moist cotton applicators as described previously. After IM, the laparotomy was closed by one layer of continuous suture, except when probe sampling was conducted within 20 minutes after surgery. These animals were held in anesthesia and the abdomen was closed by a clamp and protected with sterile gauze. All other animals recovered rapidly from the bowel manipulation procedure. Control animals exclusively underwent laparotomy without eventration and IM (sham operation).
Animals within examples referring to FIGS. 2-9 were treated 90 minutes before operation with 0 mg/kg (placebo group), or 5 mg/kg bodyweight CNI-1493. In further experiments in rats or mice 0.1, 1.0 or 10 mg/kg CPSI-2364 were administered 90 minutes before surgical procedure via oral route. Oral (p.o.) administration was performed via a gastric tube. CNI-1493 and CPSI-2364 were dissolved in 2.5% mannitol. Placebo and CNI-1493 or CPSI-2364 groups were subdivided in two further groups. One was sham operated (laparotomy without IM) while the other underwent laparotomy followed by IM.
Specimens for histochemical analysis were prepared 24 h after operation and performed on whole mounts of the distal jejunum, as described before in detail (n=5-7 each group) 9. In brief, jejunal segments were opened, immersed in chilled Krebs-Ringer buffer (KRB) and fixed in 100% ethanol for 10 minutes. After washing with KRB, mucosa and submucosa were stripped off and ME whole mounts were used for detection of myeloperoxidase (MPO) positive cells (neutrophils). Thereto, freshly prepared whole mounts were stained with Hanker-Yates reagent as described previously (Wehner S, Schwarz N T, Hundsdoerfer R et al. Induction of IL-6 within the rodent intestinal muscularis after intestinal surgical stress. Surgery 2005; 137:436-446). MPO+-cells were counted under a microscope (TE-2000, Nikon, Duesseldorf, Germany) in 5 randomly chosen areas in each specimen.

The subject of assay [1] is nitric oxide (NO) production in ME. Kind of assay: Nitric oxide release from cultured mouse ME (Griess reaction) after IM. The class given is in vivo, mice. Here is the method: […] Control animals received CNI-1493 (5 mg/kg) intravenously or CPSI-2364 orally (1 mg/kg or 0.1 mg/kg), but were not operated.
After preoperative i.v. or oral drug or placebo administration animals underwent IM. Control animals received CNI-1493 or placebo i.v. or orally but were not operated.
Total ME from small intestine was isolated 24 h after operation as described above and then cut into small pieces and washed for 30 minutes in PBS containing a penicillin/streptomycin (200U/200 μg) mixture. Aliquots of ˜50 mg were incubated in 1 mL of DMEM at 37° C. and 5% CO2 for further 24 hours and tissue culture supernatants were frozen in liquid nitrogen. The muscle tissue was blotted dry, and the exact weight was measured. To quantify the generation of NO from intestinal smooth muscle preparations, nitrite production was measured by the Griess reaction as described previously (Kalff J C, Schraut W H, Billiar T R et al. Role of inducible nitric oxide synthase in postoperative intestinal smooth muscle dysfunction in rodents. Gastroenterology 2000; 118:316-327). In brief, supernatant from the tissue culture was mixed with an equal volume of Griess reagent (0.1% N-(1-napthyl)ethyl-enediamine dihydrochloride and 1% sulfanilamide in 6% phosphoric acid; 1:1) and incubated for 10 minutes. The absorbance at 550 nm was measured with a microplate reader and compared with standard dilutions of sodium nitrite. Total nitrite produced was normalized to 1 g of muscle tissue.

The test system of assay [2] is jejunal circular smooth muscle. Nature of the assay: In vitro jejunal circular smooth muscle contractility (bethanechol) after IM, mouse. The class given is in vivo, mice. As for the experimental part:
Jejunal smooth muscle activity was measured as previously described (Kalff J C, Schraut W H, Simmons R L et al. Surgical manipulation of the gut elicits an intestinal muscularis inflammatory response resulting in postsurgical ileus. Ann Surg 1998; 228:652-663). Briefly, after preparation, mucosa-free circular ME strips were equilibrated in KRB perfused organ chambers at 37° C. for 1 hour. One end of each strip was tied to a fixed post and the other attached to an isometric force transducer (ADI, Heidelberg, Germany) connected to the bridge amplifier and powerlab system (ADI). Dose-response curves of muscle contraction were generated by exposing the muscle strips to increasing concentrations of the muscarinic agonist bethanechol (0.1-300 μmol/L) for 10 minutes, followed by a wash-period (KRB) of 10 minutes. The contractile response was analyzed with the ADI Chart© software and the contractions were calculated as grams per square millimeter per second by conversion of the weight and length of the strip to square millimeters of tissue.

Assay [3] deals with mice. Nature of the assay: In vivo gastrointestinal transit (FITC-dextran geometric center) after IM, mouse. Here is the method: Gastrointestinal transit was measured 23.5 hours postoperatively by evaluating the intestinal location of a fluorochrome labeled dextran (FITC—dextran, 70.000 MW, Molecular Probes, Netherlands) (n=10 each). Thereto, 22 hours after the bowel manipulation, animals were lightly anesthetized and given FITC-dextran (200 μl of 6.25 mg/ml stock solution) via a gastric tube into the stomach. Mice were killed 90 minutes after administration, the entire gastrointestinal tract was divided into 15 segments, opened and FITC-dextran was washed out by PBS. Fluorescence of segment washes was read at 494 nm/521 nm wavelength in fluorescence reader (Tecan, Crailsheim, Germany). The data were expressed as the percentage of activity per segment. Gastrointestinal transit was calculated as the geometric center (GC) of distribution of fluorescence marker using this formula:
GC=Σ(% of total fluorescent signal per segment*segment number)/100.

For assay [4], the system named is mice. Kind of assay: In vivo colonic transit (glass ball excretion time) after IM, mouse. As for the experimental part: Colonic transit measurement was performed 24 h hours after operation by inserting a 2 mm glass ball with a metal rod 3 cm into the colon. Before insertion colonic patency was ensured by exclusively inserting the rod 3 cm into the colon. Mice were weakly anesthetized with isofluran for the whole procedure and wake up within 40 seconds after glass ball insertion. Colonic transit time was calculated as the period between insertion and excretion of the ball.

Consider `C/C(=N\N=C(N)N)c1cc(NC(=O)CCCCCCCCC(=O)Nc2cc(/C(C)=N/N=C(N)N)cc(/C(C)=N/N=C(N)N)c2)cc(/C(C)=N/N=C(N)N)c1.CS(=O)(=O)O.CS(=O)(=O)O.CS(=O)(=O)O.CS(=O)(=O)O` [CPSI-2364], for which the “neutrophils in ME compared to the placebo IM group” value with neutrophils in ME (mice, p.o. preoperative, 24 hours after IM (FIG. 11)) is reported as “significant reduction of neutrophils”. In addition, the “nitric oxide and its metabolites in muscularis culture supernatant vs Sham+Placebo” value in assay [1] (mice, 10 mg/kg orally 90 minutes or intravenously 60 minutes before operation, IM (FIG. 27)) is reported as “None of the CPSI-2364 treated group differed significantly different from Sham+Placebo group”. Besides, in assay [2] (mice, p.o. preoperative (FIG. 13)), the “suppression of bethanechol stimulated muscle contractility after IM” value is recorded as “strongly abrogated”. Moreover, the “geometric centers of FITC dextran distribution vs Sham+Placebo” value with mice [3] (mice, 0.1, 1 or 10 mg/kg orally 90 minutes, 6 hours or 16 h before operation, IM (FIG. 25)) is “None of the CPSI-2364 treated groups differed significantly from the Sham+Placebo group”. In the assay on mice [3] (mice, p.o. preoperative, IM (FIG. 14)), the “gastrointestinal transit (GIT)” value is on record as “normalized GIT”. Moreover, the “colonic transit, excretion time of the ball vs Sham+Placebo” value with mice [4] (mice, 0.1, 1 or 10 mg/kg orally 90 minutes, 6 hours or 16 h before operation, IM (FIG. 26)) is on record as “None of the CPSI-2364 treated group differed significantly from Sham+Placebo group”.

On to `C/C(=N\N=C(N)N)c1cc(NC(=O)CCCCCCCCC(=O)Nc2cc(/C(C)=N/N=C(N)N)cc(/C(C)=N/N=C(N)N)c2)cc(/C(C)=N/N=C(N)N)c1.Cl.Cl.Cl.Cl` [CNI-1493], for which the “number of neutrophils in ME” value in the assay with neutrophils in ME (5 mg/kg i.p. preoperative) turned out to be 36.1±10.7; with neutrophils in ME (5 mg/kg i.v. preoperative), 52.1±15.5. The “neutrophil infiltration, reduction” value in the assay with neutrophils in ME (intravenous treatment, after IM) is “reduced by only one third”. In addition, the “NO production (nitrite release) from ME” value turned out to be 333 ± 198 µM in assay [1] (5 mg/kg i.v. preoperative, ME taken 24 h after IM, cultured 24 h) and 45.5 ± 52.2 µM in assay [1] (5 mg/kg i.v., non-operated animals (basal)). The “suppression of bethanechol stimulated muscle contractility after IM” value in assay [2] (5 mg/kg i.v. preoperative, 24 h after IM) is “completely abrogated”. The “gastrointestinal transit, geometric center (GC)” value with mice [3] (5 mg/kg i.p. preoperative, IM) was 10.96±1.71; with mice [3] (5 mg/kg i.p., sham operated), 9.81±0.92; with mice [3] (5 mg/kg i.v. 90 minutes before operation, IM) it was 8.97±0.60; in the assay with mice [3] (5 mg/kg i.v., sham operated) it was 11.98±0.73; in the assay with mice [3] (given immediately before laparotomy and IM (results not shown)), 5.48±2.01. In addition, the colonic transit time was 166 ± 87 s in the assay on mice [4] (5 mg/kg intravenously preoperative, 24 hours after IM) and 118 ± 68 s with mice [4] (unoperated controls of the CNI-1493 group (S-CTL, FIG. 8E)).
